Data: patent US11439696B2, “Modulation of proprotein convertase subtilisin/kexin 9 expression (PCSK9) with HSP 27 and/or HSP25” (PEMI31 Therapeutics Inc., priority 2015, dated 2022)
“And” between values parts separate entries of the source, which are not always exact repeats. Identical values can stand only once.

Legend:
LDL-Receptor (LDL-R) = test: LDL-Receptor fluorescent immunolabelling of HepG2 (liver) cells; type: cell-based; details: HepG2, 17β-estradiol 100 nM or rHSP27 100 μg overnight (16 hours) (FIG. 17)
Protocol: HepG2 cells (10^5 cells) were seeded in SPL Coverglass sterile dish 35×10 mm (Bio Lab) for 2 days. Cells were then treated with 17β-estradiol (100 nM) or rHSP27 (100 μg) overnight (16 hours). After washing, cells were fixed in 4% paraformaldehyde, permeabilized in 0.5% (v/v) Triton x-100 for 10 minutes, washed, blocked in 10% horse serum (1 hour), washed, then incubated in primary antibody rabbit monoclonal to LDL-R (Ab52818; ABCAM; 1:100) 4° C. overnight. After washing, cells were incubated in secondary antibody fluorescein goat Anti-Rabbit IgG antibody (FI-1000; Vector Laboratories; 1:100) for 30 min at room temperature, then mounted with mounting medium with DAPI (VectaShield Antifade Mounting Medium with DAPI; Vector Labs H-1200) for at least 24 hour in the dark before visualization. Various controls were used, and included: (i) absence of the Triton treatement, and (ii) omitting the primary or secondary antibodies used for immunolabelling. Immunofluorescence 10^5 cells were seeded ina SPL coverglass sterile dish 35×10 mm (Bio Lab) for 2 days. The cells were then treated with 17 β-estradiol (100 nM) or rHSP27 (100 μg) overnight (16 hours). […] Mounted with mounting medium with DAPI (VectaShield Antifade Mounting Medium with DAPI; Vector Labs H-1200) for at least 24 hour in the dark before visualization with fluorescence microscopy.

LDL-Receptor = test: Western blot (relative densitometry) of LDL-Receptor expression in HepG2 (liver) cells; type: cell-based; details: HepG2 (liver) cells treated for 6 h (FIG. 16)
Protocol: (§1) HepG2 cells (0.5×10^6 cells/60 mm well) were incubated on H-Glucose DMEM medium containing 10% FBS and 1×penicillin/streptomycin in the presence or absence of rHsp27 (200 μg) for specified time periods at 37° C. At the end of incubation period, the medium was removed and centrifuged at 4,000 rpm for 10 min at 4° C. to remove a small amount of residual cells and debris. The supernatant fraction was stored at 4° C. until analyzed.
(§2) Meanwhile, cells were washed three times with cold PBS, scraped off the dishes (after the addition of 1 ml lysis buffer (20 mM Tris-HCl; pH 8.0; 150 mM NaCl; 0.1 mM PMSF), and sonicated; whole cell lysates were then stored at −20° C. until use.
(§3) Total cell or tissue lysates were prepared in lysis buffer (20 mM Tris-Hcl pH8.0, 150 mM NaCl, 0.1% SDS, 0.1 mM PMSF). Lysates were cleared by centrifugation at 4° C., 12,000 rpm for 10 min, and protein concentrations were determined using the Bradford protein assay with BSA as the standard. […]

PCSK9 [1] = test: Western blot (relative densitometry) of PCSK9 expression in HepG2 (liver) cells; type: cell-based; details: HepG2 (liver) cells treated for 1 h (FIG. 15)
Protocol: as §1, §2, §3
HepG2 cells in the 6-well plates were washed twice with phosphate-buffered saline and lifted by pipette with 1 ml PBS. […] The membrane fraction was re-suspended in PBS by sonication and the protein concentration was determined by Bradford reagent (Sigma). […] Signals on the membrane were visualized by chemi-luminescence of HRP substrate.

PCSK9 mRNA = PCSK9 mRNA expression in HepG2 (liver) cells by quantitative RT-PCR; type: cell-based; details: HepG2 (FIG. 14)
PCSK9 [2] = test: PCSK9 secretion from HepG2 (liver) cells with increasing doses of Atorvastatin; type: cell-based; details: HepG2, increasing doses of AV (FIG. 12)
Protocol: […] At the end of incubation period, the medium was removed and centrifuged at 4,000 rpm for 10 min at 4° C. to remove a small amount of residual cells and debris. The supernatant fraction was stored at 4° C. until analyzed.
Total cell or tissue lysates were prepared in lysis buffer (20 mM Tris-Hcl pH8.0, 150 mM NaCl, 0.1% SDS, 0.1 mM PMSF). Lysates were cleared by centrifugation at 4° C., 12,000 rpm for 10 min, and protein concentrations were determined using the Bradford protein assay with BSA as the standard. Samples (30 μl culture medium, 50 μg for cell and 25 μg for liver) were separated by SDS-PAGE under reducing conditions, transferred to IMMOBILON® PVDF (IMMOBILON is a registered trademark of Millipore Corp.) using IBLOT® Dry Blotting System (Life Technologies; IBLOT is a registered trademark of Invitrogen Corp., Carlsbad, Calif., USA) and subsequently membranes were immunoblotted with the following antibodies: LDL-R (Santa Cruz, 1:1000) and PCSK9 (Santa Cruz, 1:1000); β-Actin (Santa Cruz, 1:1000) was used as the loading control. Appropriate secondary HRP-conjugated antibodies were used prior to visualization by enhanced chemiluminescence (ECL, Life technologies).

[3] = Stability of HSP27 in human serum at −20° C. (MRM-MS); type: physicochemical; details: two representative human sera, 3 weeks storage at −20° C. (FIG. 7E)
Protocol: The assay was fully validated according to the U.S. Food and Drug Administration (FDA) Bioanalytical method validation guideline (www.fda.dov/downloads/Drugs/GuidanceComplianceRegulatoryInformation/Guidances/UCM070107). Nine calibration standards of trypsin-digested recombinant HSP27 were prepared by serial dilution in concentrations of 1000; 500; 250; 125; 62.5; 31.25; 15.625; 7.8 and 0 ng/ml. The limit of detection (LOD) was calculated as the smallest detectable peak above baseline noise (signal-to-noise ratio>3:1). Calculating target peptide: AQUA peptide ratios of the peak area for each concentration level. Standard curves were constructed by linear regression analysis by excel. The same samples were analyzed 7 times and the repeatability was compared. Extraction efficiency and recovery were performed by comparing concentrations between samples without and with standard rHSP27. Matrix effect was assessed using double dilution test for the linearity when serum samples were 1, 2, 4 and 8 times diluted. Parallelism test was also applied to estimate matrix effect. Stability of HSP27 in human serum was estimated for 21 days at −20° C.

C[C@]12CC[C@@H]3c4ccc(O)cc4CC[C@H]3[C@@H]1CC[C@@H]2O [17 β-estradiol]
LDL-R signal (LDL-Receptor (LDL-R)): increased | increase in LDL-Receptor expression (LDL-Receptor): 116% | reduction in PCSK9 expression (PCSK9 [1]): 28%

CC(C)c1c(C(=O)Nc2ccccc2)c(-c2ccccc2)c(-c2ccc(F)cc2)n1CC[C@@H](O)C[C@@H](O)CC(=O)O [AV, Atorvastatin]
PCSK9 expression (mRNA) on treatment with AV (PCSK9 mRNA): increase | secretion of PCSK9 (PCSK9 [2]): dose-dependent secretion

endogenous HSP27: endogenous heat shock protein 27 in human serum samples, measured by MRM-MS
endogenous HSP27 remaining after storage [3]: 111+6 % of fresh sera and 87+5 % of fresh sera
